Patent US20170008888A1 (KYORIN PHARMACEUTICAL CO., LTD., priority 2014, published 2017)

What was measured:
Format in all cases: binding
JAK1 = biological target: T1, JAK1 (Homo sapiens, UniProt P23458); test: Probe-based (AX9989) kinase profiling in Jurkat lysate: JAK1; details: read-out: Kinase inhibition % at indicated screening concentration: JAK1; for inhibition at 1 µM: screening concentration 1.0 μM
T1 construct: screened for activity against several kinases in Jurkat cells; endogenous in cells; host or cells: Jurkat cell lysate
T1 sequence (P23458 whole entry): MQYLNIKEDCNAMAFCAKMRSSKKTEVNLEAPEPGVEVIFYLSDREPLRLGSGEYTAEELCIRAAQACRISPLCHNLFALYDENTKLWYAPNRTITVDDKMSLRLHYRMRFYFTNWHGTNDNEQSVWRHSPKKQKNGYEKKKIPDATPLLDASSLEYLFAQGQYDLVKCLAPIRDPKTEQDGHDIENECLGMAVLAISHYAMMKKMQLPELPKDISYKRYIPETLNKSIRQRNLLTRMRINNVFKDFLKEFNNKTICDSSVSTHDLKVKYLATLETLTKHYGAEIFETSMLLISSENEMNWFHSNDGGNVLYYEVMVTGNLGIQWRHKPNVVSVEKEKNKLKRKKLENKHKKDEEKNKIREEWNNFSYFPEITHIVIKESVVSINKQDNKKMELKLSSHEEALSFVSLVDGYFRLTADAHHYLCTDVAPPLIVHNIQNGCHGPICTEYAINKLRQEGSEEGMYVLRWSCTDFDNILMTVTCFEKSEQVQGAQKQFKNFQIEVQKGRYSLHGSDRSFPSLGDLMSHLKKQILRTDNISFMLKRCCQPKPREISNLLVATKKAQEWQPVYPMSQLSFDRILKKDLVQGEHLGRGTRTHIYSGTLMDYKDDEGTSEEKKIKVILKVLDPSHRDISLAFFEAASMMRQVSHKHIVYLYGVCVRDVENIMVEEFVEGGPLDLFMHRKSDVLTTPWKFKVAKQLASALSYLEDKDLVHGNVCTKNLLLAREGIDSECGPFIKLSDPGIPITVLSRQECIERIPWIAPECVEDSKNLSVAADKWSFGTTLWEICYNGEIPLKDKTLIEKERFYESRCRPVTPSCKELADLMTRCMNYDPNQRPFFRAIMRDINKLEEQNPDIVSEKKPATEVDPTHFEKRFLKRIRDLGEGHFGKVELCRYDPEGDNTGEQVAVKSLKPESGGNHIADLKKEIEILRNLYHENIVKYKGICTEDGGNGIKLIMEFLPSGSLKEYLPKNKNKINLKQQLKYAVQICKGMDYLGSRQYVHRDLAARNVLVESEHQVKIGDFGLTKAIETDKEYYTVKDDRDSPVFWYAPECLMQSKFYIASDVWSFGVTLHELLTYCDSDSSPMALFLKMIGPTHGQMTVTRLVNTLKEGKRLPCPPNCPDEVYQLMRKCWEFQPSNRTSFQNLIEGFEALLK
In short: (§1)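 Percent inhibition was derived from reduced LC/MS fragment intensities of probe-labeled peptides relative to compound-free controls. Before labeling with 5 μM AX9989, Mn2+-supplemented (20 mM) Jurkat lysate was exposed to compound for 15 min at room temperature.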

AMPKa1 or AMPKa2 = test: Probe-based (AX9989) kinase profiling in Jurkat lysate: AMPKa1 or AMPKa2
In short: as §1

AurB or AurC = test: Probe-based (AX9989) kinase profiling in Jurkat lysate: AurB or AurC
In short: as §1

AurA = biological target: T2, AurA (Homo sapiens, UniProt O14965); test: Probe-based (AX9989) kinase profiling in Jurkat lysate: AurA; details: read-out: Kinase inhibition % at indicated screening concentration: AurA; for inhibition at 1 µM: screening concentration 1.0 μM
T2 construct: screened for activity against several kinases in Jurkat cells; endogenous in cells; host or cells: Jurkat cell lysate
T2 sequence (O14965 1-403): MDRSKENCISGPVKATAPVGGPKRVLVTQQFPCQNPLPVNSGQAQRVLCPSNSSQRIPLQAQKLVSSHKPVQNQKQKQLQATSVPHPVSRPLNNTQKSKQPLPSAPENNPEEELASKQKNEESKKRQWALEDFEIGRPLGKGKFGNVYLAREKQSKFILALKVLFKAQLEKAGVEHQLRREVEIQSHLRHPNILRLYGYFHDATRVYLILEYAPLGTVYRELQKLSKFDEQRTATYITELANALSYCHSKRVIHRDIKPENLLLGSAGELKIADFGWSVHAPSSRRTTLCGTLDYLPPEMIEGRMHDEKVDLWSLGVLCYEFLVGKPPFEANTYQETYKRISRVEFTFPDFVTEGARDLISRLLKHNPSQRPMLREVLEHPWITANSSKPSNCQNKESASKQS
In short: as §1

ACK = biological target: T3, ACK (Homo sapiens, UniProt Q07912); test: Probe-based (AX9989) kinase profiling in Jurkat lysate: ACK; details: read-out: Kinase inhibition % at indicated screening concentration: ACK; for inhibition at 1 µM: screening concentration 1.0 μM
T3 construct: screened for activity against several kinases in Jurkat cells; endogenous in cells; host or cells: Jurkat cell lysate
T3 sequence (Q07912 whole entry): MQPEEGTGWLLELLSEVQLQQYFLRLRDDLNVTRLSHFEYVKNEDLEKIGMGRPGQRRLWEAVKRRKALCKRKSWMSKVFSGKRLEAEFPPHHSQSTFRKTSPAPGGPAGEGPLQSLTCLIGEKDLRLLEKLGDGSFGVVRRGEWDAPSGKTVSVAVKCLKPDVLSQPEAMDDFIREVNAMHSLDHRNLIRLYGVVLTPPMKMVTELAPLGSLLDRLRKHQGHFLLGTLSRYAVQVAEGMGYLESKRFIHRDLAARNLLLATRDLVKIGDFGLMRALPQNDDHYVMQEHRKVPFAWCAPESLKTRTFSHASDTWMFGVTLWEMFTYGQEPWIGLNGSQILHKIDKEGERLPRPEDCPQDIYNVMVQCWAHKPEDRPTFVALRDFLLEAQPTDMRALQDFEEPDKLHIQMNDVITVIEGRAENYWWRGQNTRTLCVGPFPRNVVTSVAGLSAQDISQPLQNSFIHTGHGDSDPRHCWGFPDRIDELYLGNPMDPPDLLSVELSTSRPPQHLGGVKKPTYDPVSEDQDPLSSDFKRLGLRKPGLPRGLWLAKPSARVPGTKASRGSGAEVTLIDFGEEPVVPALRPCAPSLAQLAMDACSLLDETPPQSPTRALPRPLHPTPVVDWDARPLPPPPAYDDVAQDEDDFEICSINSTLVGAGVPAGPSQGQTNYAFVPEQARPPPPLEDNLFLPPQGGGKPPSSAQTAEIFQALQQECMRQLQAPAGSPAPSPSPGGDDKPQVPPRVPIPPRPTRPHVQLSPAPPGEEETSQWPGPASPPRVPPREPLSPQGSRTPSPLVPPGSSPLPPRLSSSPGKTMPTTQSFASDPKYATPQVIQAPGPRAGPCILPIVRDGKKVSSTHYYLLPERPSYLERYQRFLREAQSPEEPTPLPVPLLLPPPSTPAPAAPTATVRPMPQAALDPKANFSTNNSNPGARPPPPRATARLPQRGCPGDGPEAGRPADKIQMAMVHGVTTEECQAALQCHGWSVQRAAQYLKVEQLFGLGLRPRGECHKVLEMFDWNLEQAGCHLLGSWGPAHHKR
In short: as §1

TAO2 = biological target: T4, TAO2 (Homo sapiens, UniProt Q9UL54); test: Probe-based (AX9989) kinase profiling in Jurkat lysate: TAO2; details: read-out: Kinase inhibition % at indicated screening concentration: TAO2; for inhibition at 1 µM: screening concentration 1.0 μM
T4 construct: screened for activity against several kinases in Jurkat cells; endogenous in cells; host or cells: Jurkat cell lysate
T4 sequence (Q9UL54 1-1235): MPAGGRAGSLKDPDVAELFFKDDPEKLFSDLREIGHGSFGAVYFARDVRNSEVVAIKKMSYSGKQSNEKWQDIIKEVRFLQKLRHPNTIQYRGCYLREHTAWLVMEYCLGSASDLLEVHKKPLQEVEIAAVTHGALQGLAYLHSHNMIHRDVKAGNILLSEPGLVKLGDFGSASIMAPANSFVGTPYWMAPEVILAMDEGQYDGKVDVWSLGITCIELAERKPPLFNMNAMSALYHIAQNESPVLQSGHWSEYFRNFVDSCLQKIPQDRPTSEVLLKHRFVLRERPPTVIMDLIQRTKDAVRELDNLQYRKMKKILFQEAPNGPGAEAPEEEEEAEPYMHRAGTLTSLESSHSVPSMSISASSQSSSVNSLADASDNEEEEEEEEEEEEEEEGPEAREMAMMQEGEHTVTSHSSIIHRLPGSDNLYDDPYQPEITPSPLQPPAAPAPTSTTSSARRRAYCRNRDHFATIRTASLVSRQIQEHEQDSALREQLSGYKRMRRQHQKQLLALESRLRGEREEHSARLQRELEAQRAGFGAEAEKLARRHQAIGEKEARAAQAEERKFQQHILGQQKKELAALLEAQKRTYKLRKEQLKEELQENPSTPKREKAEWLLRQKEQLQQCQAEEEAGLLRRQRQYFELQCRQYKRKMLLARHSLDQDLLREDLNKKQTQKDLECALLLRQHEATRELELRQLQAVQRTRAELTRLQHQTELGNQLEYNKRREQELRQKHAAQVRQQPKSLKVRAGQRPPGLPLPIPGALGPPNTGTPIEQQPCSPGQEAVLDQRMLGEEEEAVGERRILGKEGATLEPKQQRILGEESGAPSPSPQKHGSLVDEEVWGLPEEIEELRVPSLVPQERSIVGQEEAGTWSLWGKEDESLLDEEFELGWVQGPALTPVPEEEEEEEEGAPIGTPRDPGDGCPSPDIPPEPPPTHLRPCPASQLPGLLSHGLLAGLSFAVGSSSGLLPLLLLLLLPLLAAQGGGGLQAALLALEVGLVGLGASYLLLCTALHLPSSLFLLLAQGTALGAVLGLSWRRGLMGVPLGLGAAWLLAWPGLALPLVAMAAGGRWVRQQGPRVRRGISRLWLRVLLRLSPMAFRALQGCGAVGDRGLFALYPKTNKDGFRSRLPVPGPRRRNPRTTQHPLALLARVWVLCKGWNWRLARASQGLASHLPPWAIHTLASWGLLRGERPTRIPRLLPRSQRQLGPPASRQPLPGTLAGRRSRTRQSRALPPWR
In short: as §1

ERK5 = biological target: T5, ERK5 (Homo sapiens, UniProt Q13164); test: Probe-based (AX9989 acyl phosphate ATP probe) kinase profiling in Jurkat lysate: ERK5; details: for IC50: calculated from percent inhibition of AX9989 labeling and the screening concentration, Jurkat lysate; for inhibition at 1 µM: screening concentration 1.0 μM
T5 construct: screened for activity against several kinases in Jurkat cells; endogenous in cells; host or cells: Jurkat cell lysate
T5 sequence (Q13164 whole entry): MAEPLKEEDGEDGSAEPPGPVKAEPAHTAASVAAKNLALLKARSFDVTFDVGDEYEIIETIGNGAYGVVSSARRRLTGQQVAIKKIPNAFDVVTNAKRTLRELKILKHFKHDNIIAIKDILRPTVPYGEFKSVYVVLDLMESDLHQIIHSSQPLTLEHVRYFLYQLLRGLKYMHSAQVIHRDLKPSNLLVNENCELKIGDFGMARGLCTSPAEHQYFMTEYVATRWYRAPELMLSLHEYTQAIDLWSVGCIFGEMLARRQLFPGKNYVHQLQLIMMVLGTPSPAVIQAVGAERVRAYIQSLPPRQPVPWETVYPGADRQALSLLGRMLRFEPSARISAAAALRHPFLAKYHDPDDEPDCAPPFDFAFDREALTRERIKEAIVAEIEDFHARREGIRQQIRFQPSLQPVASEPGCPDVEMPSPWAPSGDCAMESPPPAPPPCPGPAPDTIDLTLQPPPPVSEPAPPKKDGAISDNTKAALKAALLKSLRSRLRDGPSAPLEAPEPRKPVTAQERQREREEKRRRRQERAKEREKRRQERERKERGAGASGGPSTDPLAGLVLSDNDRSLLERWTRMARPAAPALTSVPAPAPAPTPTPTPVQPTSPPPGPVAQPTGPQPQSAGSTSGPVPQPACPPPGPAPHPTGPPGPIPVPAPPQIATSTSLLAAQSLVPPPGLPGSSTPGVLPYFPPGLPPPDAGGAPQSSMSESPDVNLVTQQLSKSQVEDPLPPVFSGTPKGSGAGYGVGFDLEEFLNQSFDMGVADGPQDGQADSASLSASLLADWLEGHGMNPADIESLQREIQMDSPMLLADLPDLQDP
In short: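 ERK5 IC50 values came from percent inhibition at the screening concentration, measured as loss of LC/MS signal of probe-labelled active-site peptides. Compound was added for 15 min at room temperature to Jurkat lysate (5 mg/ml, 20 mM MnCl2) before labelling with AX9989 ATP acyl phosphate probe at 5 μM.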

ABL or ARG = test: Probe-based (AX9989) kinase profiling in Jurkat lysate: ABL or ARG
In short: as §1

[1] = biological target: T6, BRD4 bromodomain domain I [BRD4(1)] (Homo sapiens, UniProt O60885); test: BRD4 bromodomain domain 1 inhibition assay (TR-FRET); details: screening concentration 10 μM
T6 construct: BRD4 bromodomain domain I [BRD4(1)]; purchased Cayman Chemicals
Method: The inhibitory activity of test compounds on the bromodomain, BRD4 bromodomain domain I [BRD4(1)], were determined via TR-FRET after a slight modification of the manufacturer's protocol (Cayman Chemicals, Ann Arbor, Mich.). Briefly, compounds were diluted to a 20× ([…]) concentration in DMSO. 100 nL of 20× compounds were then dry stamped into triplicate wells of black, low volume 384 well plates (Aurora Biotechnologies, Carlsbad, Calif.) using the Mosquito liquid handler (TPP Labtech, Melbourn, UK). 20× compounds were then diluted to a 4× (40 μM) concentration in Assay Buffer to result in 2% DMSO content. […] JQ1 at 10 μM or 0.5% DMSO final concentrations were used as the positive and negative controls, respectively, to set the assay window. The fluorescence was read in a time-resolved format on the Biotec Synergy 2 plate reader by exciting the signal at 340 nm and reading emissions at 620 and 670, using a 100 μs delay and 200 μs read window. […] Briefly, TR-FRET ratio values were normalized to the average TR-FRET ratio value given by 10 μM JQ1. […]

[2] = read-out: Kinase inhibition % at indicated screening concentration: ERK5

| Structure (SMILES) | inhibition at 1 µM (JAK1) [%] | Kinase inhibition % at indicated screening concentration: AMPKa1 or AMPKa2 (AMPKa1 or AMPKa2; screening concentration 1.0 μM) | Kinase inhibition % at indicated screening concentration: AurB or AurC (AurB or AurC; screening concentration 1.0 μM) | inhibition at 1 µM (AurA) [%] | inhibition at 1 µM (ACK) [%] | inhibition at 1 µM (TAO2) [%] | IC50 (ERK5) [nM] | inhibition at 1 µM (ERK5; [2]) [%] | Kinase inhibition % at indicated screening concentration: ABL or ARG (ABL or ARG; screening concentration 1.0 μM) | inhibition at 10 µM [1] [%] | inhibition at 0.1 µM (JAK1; screening concentration 0.1 μM) [%] | Kinase inhibition % at indicated screening concentration: AMPKa1 or AMPKa2 (AMPKa1 or AMPKa2; screening concentration 0.1 μM) | Kinase inhibition % at indicated screening concentration: AurB or AurC (AurB or AurC; screening concentration 0.1 μM) | inhibition at 0.1 µM (AurA; screening concentration 0.1 μM) [%] | inhibition at 0.1 µM (ACK; screening concentration 0.1 μM) [%] | inhibition at 0.1 µM (TAO2; screening concentration 0.1 μM) [%] | inhibition at 0.1 µM (ERK5; screening concentration 0.1 μM, read-out: Kinase inhibition % at indicated screening concentration: ERK5) [%] | Kinase inhibition % at indicated screening concentration: ABL or ARG (ABL or ARG; screening concentration 0.1 μM) |
| --- | --- | --- | --- | --- | --- | --- | --- | --- | --- | --- | --- | --- | --- | --- | --- | --- | --- | --- |
| CN1C(=O)c2ccccc2N(C)c2cc(NC3CCC(C(=O)O)CC3)ncc21 (stereo not shown) [Compound 23] | ≤ 35 | E (E is ≦35%) | E (E is ≦35%) | ≤ 35 | ≤ 35 | ≤ 35 | > 500 | 35 to 50 | E (E is ≦35%) | < 70 | – | – | – | – | – | – | – | – |
| COc1cc(C(=O)N2CCC(N(C)C)C2)c(F)cc1Nc1cc2c(cn1)N(C)C(=O)c1ccccc1N2C (stereo not shown) [Compound 90] | – | – | – | – | – | – | 101 to 500 | – | – | < 70 | ≤ 35 | E (E is ≦35%) | E (E is ≦35%) | ≤ 35 | ≤ 35 | ≤ 35 | ≤ 35 | E (E is ≦35%) |
| CC(=O)NC1CCC(Nc2cc3c(cn2)N(C)C(=O)c2ccccc2N3C)CC1 (stereo not shown) [Compound 98] | ≤ 35 | E (E is ≦35%) | E (E is ≦35%) | ≤ 35 | ≤ 35 | ≤ 35 | > 500 | 50 to 75 | E (E is ≦35%) | < 70 | – | – | – | – | – | – | – | – |
| CN1C(=O)c2ccccc2N(C)c2cc(N[C@H]3CC[C@H](NS(C)(=O)=O)CC3)ncc21 [Compound 99] | ≤ 35 | E (E is ≦35%) | E (E is ≦35%) | ≤ 35 | ≤ 35 | ≤ 35 | 101 to 500 | 75 to 90 | E (E is ≦35%) | 70 to 85 | – | – | – | – | – | – | – | – |
